Reference: patent publication US20020183384A1, “Methods of treating nuclear factor-kappa B mediated diseases and disorders” (priority 2001, published 2002)

Test system: NF-κB mediated transcription
Test: NF-κB driven β-lactamase reporter assay in ECV-304 NF-κB.βlaZ cells (AURORA CCF2 fluorescence)
Type: cell-based, human
Details: 10 μM compound; ECV-304 NF-κB.βlaZ cells stimulated with 10 ng/mL TNF-α or 100 pg/mL IL-1β, 6 hours at 37° C.; inhibition of maximum blue/green ratio
Excerpt: Introduction: Described below is an in vitro, cell-based, high throughput screening assay that reliably identifies inhibitors of NF-κB mediated transcription.
The assay takes advantage of AURORA (Aurora Bioscience Corporation, La Jolla, Calif.) fluorescence technology. Endothelial cell vein-304 (ECV-304) cells, an endothelial-like immortalized cell type, may be stably transfected with a plasmid vector containing the cDNA for the enzyme β-lactamase (under the control of a basal promoter, Stratagene pNFκB-luc vector) and 5 copies of an human immunodeficiency virus-1 (HIV-1) NF-κB binding site. ECV-304 cells are described by Takahashi K. et al. in Spontaneous Transformation and Immobilization of Human Endothelial Cells, In Vitro Cell. Dev. Biol. 1990;25:265-274. Activation of NF-κB in ECV-304 by cytokines such as TNF-α or interleuken-1 beta (IL-1β) results in the production of β-lactamase, which cleaves a green fluorescent substrate (excitation/emission wavelengths 395 nm1530 nm) to yield a blue fluorescent product (excitation/emission wavelengths 395 nm/460 nm). Visually, the uncleaved green fluorescent substrate is sequestered intracellularly and emits green fluorescence, while the cleaved product emits blue fluorescence. Fluorescence is quantitated spectrophotometrically, and the spectral intensity of blue fluorescence versus green fluorescence can be used to calculate the degree of activation of NF-κB.
The assay was performed as outlined here and described in detail below. ECV-304 cells permanently transfected with the NF-κB driven β-lactamase gene (ECV-304 NF-κB.βlaZ) were plated in clear-bottom, black 96-well plates (1.25×10^4 cells/well) in media-199 (M-199) media containing 2% fetal bovine serum (FBS). […] The AURORA fluorescent disclosing reagent was then added. After one additional hour, the plates were read in a fluorometer at the blue 395 nm/460 nm (excitation/emission) and green 395 nm/530 nm wavelengths. Then the blue/green emission ratio was calculated. […] An IC50 for said sulfonylaminocarbonyl derivative was determined from a dose-response curve. This assay was designed to be optionally run in either high or low throughput screening modes.
Five copies of the HIV-1 NF-κB binding site (5′-[…]-3′) along with a TATA box were inserted into the EcorRI/BamHI sites of plasmid pMCRBlaZ to create plasmid p5×KBBlaZ, which procedure is illustrated in Scheme 1 below. [formula]
Cells were selected for antibiotic resistance with Zeocin for approximately 2 weeks. After the stable population had been expanded to a significant number of cells, it was stimulated with IL-1β and stained with AURORA CCF2 dye, a membrane permeant, intracellularly-trapped, fluorescent substrate. Cells that fluoresced blue (indicating a positive response of the NF-κB/β-lactamase reporter to stimulation by IL-1β) in the stimulated/stained population were then sorted by flow cytometry into a pool. The pool was expanded and stained with CCF2, and then the cells that fluoresced green from this unstimulated population (indicating a low background of the NF-κB/β-lactamase reporter construct) were cloned by flow cytometry after adding 1 cell per well in 96-well plates. Clones were allowed to expand. Each cloned cell line was then examined for fold stimulation after stimulation with IL-1β using a CCF2 reporter assay, and these stimulated cells were compared to unstimulated cells.
Cells: ECV-304 NF-κB β-Lactamase clone 1E8
Inhibitors: Prepared stock solutions of aminosulfonyl derivatives at 10 mM concentration in DMSO;
c) Added 10 μL of B into appropriate well in assay plate (the final concentration of drug is 10 μM), and […]

**Q.** `CC(C)c1cccc(C(C)C)c1OS(=O)(=O)NC(=O)OC1C2CC3CC(C2)CC1C3` (centres unmarked) [Example 131, Carbamic acid, [[2,6-bis(1-methylethyl)phenoxy]sulfonyl]-, tricyclo[3.1.1.1^3,7]-dec-2-yl ester] was tested. Which “Percent Inhibition at 10 μM” value did it give?
**A.** 33.39%

Same assay, conditions: Homo sapiens, ECV-304, 6 h, 10 μM compound; ECV-304 NF-κB.βlaZ cells stimulated with 10 ng/mL TNF-α or 100 pg/mL IL-1β, 6 hours at 37° C.; inhibition of maximum blue/green ratio; read-out: Percent Inhibition at 10 μM

**Q.** How did the inhibition at 10 µM turn out when `CCN(CC)S(=O)(=O)NC(=O)Nc1c(C(C)C)cccc1C(C)C` [Example 44, Urea, N-[2,6-bis(1-methylethyl)phenyl]-N′-[(diethylamino)sulfonyl]-] was run?
**A.** < 10%

**Q.** With `CC(=O)Nc1cc(C(C)C)c(OS(=O)(=O)NC(=O)Cc2c(C(C)C)cc(C(C)C)cc2C(C)C)c(C(C)C)c1` [Example 196, [(2,4,6-Triisopropyl-phenyl)-acetyl]-sulfamic acid 4-acetylamino-2,6-diisopropyl-phenyl ester] as the compound, how does the inhibition at 10 µM read?
**A.** 73.1%

**Q.** With `CC(C)c1cc(C(C)C)c(CC(=O)NS(=O)(=O)Oc2c(C(C)C)cc(Br)cc2C(C)C)c(C(C)C)c1` [Example 203, [(2,4,6-Triisopropyl-phenyl)-acetyl]-sulfamic acid 4-bromo-2,6-diisopropyl-phenyl ester] as the compound, how does the inhibition at 10 µM read?
**A.** 52.2%

**Q.** Which inhibition at 10 µM does the source give for `CC(C)c1cccc(C(C)C)c1OS(=O)(=O)NC(=O)C(c1ccccc1)(c1ccccc1)c1ccccc1` [Example 163, Triphenylacetyl-sulfamic acid 2,6-diisopropyl-phenyl ester] here?
**A.** 62.4%

**Q.** Which inhibition at 10 µM does the source give for `CC(C)c1cc(C(C)C)c(CC(=O)NS(=O)(=O)Oc2c(C(C)C)cc(NC(=O)[C@@H](N)CO)cc2C(C)C)c(C(C)C)c1` [Example 230, [2-(2,4,6-Triisopropyl-phenyl)-acetyl]-sulfamic acid 4-((S)-2-amino-3-hydroxy-propionylamino)-2,6-diisopropyl-phenyl ester; compound with trifluoro-acetic acid] here?
**A.** 75.2%

**Q.** With `CC(C)c1cc(C(C)C)c(CC(=O)NS(=O)(=O)Oc2c(C(C)C)cc(NC(=O)[C@@H](N)CCC(N)=O)cc2C(C)C)c(C(C)C)c1` [Example 231, [2-(2,4,6-Triisopropyl-phenyl)-acetyl]-sulfamic acid 4-((S)-2-amino-4-carbamoyl-butyrylamino)-2,6-diisopropyl-phenyl ester; compound with trifluoro-acetic acid] as the compound, how does the inhibition at 10 µM read?
**A.** 78.1%

**Q.** How did the inhibition at 10 µM turn out when `CC(C)c1cccc(C(C)C)c1NS(=O)(=O)NC(=O)N(Cc1ccccc1)Cc1ccccc1` [Example 29, N′-[[[2,6-bis(1-methylethyl)phenyl]amino]sulfonyl]-N,N-bis(phenylmethyl)-urea] was run?
**A.** 38.5%

**Q.** For `CCCCCCCCCCCCN(CCCCCCCCCCCC)S(=O)(=O)NC(=O)Nc1c(C(C)C)cccc1C(C)C` [Example 76, Urea, N-[2,6-bis(1-methylethyl)phenyl]-N′-[(didodecylamino)sulfonyl]-], which inhibition at 10 µM is on record?
**A.** < 10%

**Q.** How did the inhibition at 10 µM turn out when `C=CCN(CC)S(=O)(=O)NC(=O)Nc1c(C(C)C)cccc1C(C)C` [Example 73, Urea, N-[2,6-bis(1-methylethyl)phenyl]-N′-[[ethyl(2-propenyl)amino]-sulfonyl]-] was run?
**A.** < 10%

**Q.** `CC(C)c1cc(C(C)C)c(CC(=O)NS(=O)(=O)Oc2c(C(C)C)cc(NC(=O)[C@@H](C)N)cc2C(C)C)c(C(C)C)c1` [Example 206, [2-(2,4,6-Triisopropyl-phenyl)-acetyl]-sulfamic acid 4-((R)-2-amino-propionylamino)-2,6-diisopropyl-phenyl ester; compound with trifluoro-acetic acid] was tested. Which inhibition at 10 µM did it give?
**A.** 47.9%

**Q.** Which inhibition at 10 µM does the source give for `CC(C)c1cc(C(C)C)c(CC(=O)NS(=O)(=O)Oc2c(C(C)C)cc(NC(=O)C(CCCCNC(=O)OC(C)(C)C)NC(=O)OC(C)(C)C)cc2C(C)C)c(C(C)C)c1` (centres unmarked) [Example 195, [5-tert-Butoxycarbonylamino-5-(3,5-diisopropyl-4-{[(2,4,6-triisopropyl-phenyl)-acetyl]sulfamoyloxy}-phenylcarbamoyl)-pentyl]-carbamic acid tert-butyl ester] here?
**A.** 91.8%

**Q.** How did the inhibition at 10 µM turn out when `C=CCN(CC=C)S(=O)(=O)NC(=O)Nc1c(C(C)C)cccc1C(C)C` [Example 81, Urea, N-[2,6-bis(1-methylethyl)phenyl]-N′-[(di-2-propenylamino)-sulfonyl]-] was run?
**A.** < 10%

**Q.** For `CCCCCCCCCCCCCCS(=O)(=O)NC(=O)Nc1c(C(C)C)cccc1C(C)C` [Example 240, N-[2,6-bis(1-methylethyl)phenyl]-N′-(tetradecylsulfonyl)-urea], which inhibition at 10 µM is on record?
**A.** 10.3%

**Q.** With `CC(C)c1cccc(C(C)C)c1OS(=O)(=O)NC(=O)C1(c2ccc(N(C)C)cc2)CCCC1` [Example 211, [1-(4-Dimethylamino-phenyl)-cyclopentanecarbonyl]-sulfamic acid 2,6-diisopropyl-phenyl ester] as the compound, how does the inhibition at 10 µM read?
**A.** 24.6%

Same assay, conditions: Homo sapiens; 10 μM compound; ECV-304 NF-κB.βlaZ cells stimulated with 10 ng/mL TNF-α or 100 pg/mL IL-1β, 6 hours at 37° C.; inhibition of maximum blue/green ratio; read-out: Percent Inhibition at 10 μM

**Q.** `Cc1cccc(C)c1OC(=O)NS(=O)(=O)Oc1c(C(C)C)cccc1C(C)C` [Example 179, Carbamic acid, [[2,6-bis(1-methylethyl)phenoxy]sulfonyl]-, 2,6-dimethylphenyl ester] was tested. Which inhibition at 10 µM did it give?
**A.** < 10%

**Q.** How did the inhibition at 10 µM turn out when `CC(C)c1cccc(C(C)C)c1OC(=O)NS(=O)(=O)NCC(c1ccccc1)c1ccccc1` [Example 10, Carbamic acid, [[(2,2-diphenylethyl)amino]sulfonyl]-, 2,6-bis(1-methylethyl)-phenyl ester] was run?
**A.** 39.7%

**Q.** `COc1cc(C(C)C)c(OC(=O)NS(=O)(=O)Oc2c(C(C)C)cccc2C(C)C)c(C(C)C)c1` [Example 123, Carbamic acid, [[2,6-bis(1-methylethyl)phenoxy]sulfonyl]-, 4-methoxy-2,6-bis(1-methylethyl)phenyl ester] was tested. Which inhibition at 10 µM did it give?
**A.** < 10%

**Q.** Which inhibition at 10 µM does the source give for `CC(C)c1cc(Br)cc(C(C)C)c1OC(=O)NS(=O)(=O)Oc1c(C(C)C)cccc1C(C)C` [Example 113, Carbamic acid, [[2,6-bis(1-methylethyl)phenoxy]sulfonyl]-, 4-bromo-2,6-bis(1-methylethyl)phenyl ester] here?
**A.** < 10%

**Q.** For `CCCCCCN(CCCCCC)S(=O)(=O)NC(=O)Oc1c(C(C)(C)C)cc(C)cc1C(C)(C)C` [Example 33, Carbamic acid, [(dihexylamino)sulfonyl]-, 2,6-bis(1,1-dimethylethyl)-4-methylphenyl ester], which inhibition at 10 µM is on record?
**A.** 58.6%

**Q.** Which inhibition at 10 µM does the source give for `CC(C)c1cccc(C(C)C)c1OS(=O)(=O)NC(=O)Oc1c(F)c(F)c(F)c(F)c1F` [Example 152, Carbamic acid, [[2,6-bis(1-methylethyl)phenoxy]sulfonyl]-, pentafluorophenyl ester] here?
**A.** < 10%

**Q.** `CCCCCCCCN(CCCCCCCC)S(=O)(=O)NC(=O)Oc1c(C(C)C)cccc1C(C)C` [Example 85, Carbamic acid, [(dioctylamino)sulfonyl]-, 2,6-bis(1-methylethyl)phenyl ester] was tested. Which inhibition at 10 µM did it give?
**A.** 45%

**Q.** Which inhibition at 10 µM does the source give for `CCCCCCOS(=O)(=O)NC(=O)Oc1c(C(C)C)cccc1C(C)C` [Example 57, Carbamic acid, [(hexyloxy)sulfonyl]-, 2,6-bis(1-methylethyl)phenyl ester] here?
**A.** 20.4%

**Q.** For `Cc1cc(C(C)(C)C)c(OC(=O)NS(=O)(=O)Oc2ccccc2)c(C(C)(C)C)c1` [Example 48, Carbamic acid, (phenoxysulfonyl)-, 2,6-bis(1,1-dimethylethyl)-4-methylphenyl ester], which inhibition at 10 µM is on record?
**A.** 13.8%

**Q.** For `CC(C)c1cccc(C(C)C)c1OS(=O)(=O)NC(=O)Oc1cccnc1` [Example 178, Carbamic acid, [[2,6-bis(1-methylethyl)phenoxy]sulfonyl]-, 3-pyridinyl ester], which inhibition at 10 µM is on record?
**A.** < 10%

**Q.** With `COc1cc(C(C)(C)C)c(OC(=O)NS(=O)(=O)Oc2c(C(C)C)cccc2C(C)C)c(C(C)(C)C)c1` [Example 115, Carbamic acid, [[2,6-bis(1-methylethyl)phenoxy]sulfonyl]-, 2,6-bis(1,1-dimethylethyl)-4-methoxyphenyl ester] as the compound, how does the inhibition at 10 µM read?
**A.** 39%
